This note sets out measurements from PubChem BioAssay (NCI).

Values joined by “and” are separate entries in the source; they are usually repeats but may differ in a detail not shown here. Equal values may be shown once.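 The compound was tested at five concentrations on cells cultured in 96-well plates, with a 48-hour exposure period. At the GI50, growth is halved. TGI is the concentration that stops growth completely.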 Where a SMILES comes first, the peptide text is derived from it. [ ]: non-standard residue; d: D form. Aoe = N[C@@H](CCCCCC(=O)[C@@H]1CO1)C(=O)O A value given as a limit tells only on which side of the number the result lay.

Test systems include UACC-257 melanoma; NCI-H23 lung; NCI-H226 lung; HOP-92 NSCLC; SK-MEL-28 melanoma; SF-539 CNS; DU-145 prostate; CCRF-CEM leukemia; HOP-62 NSCLC; EKVX NSCLC; BT-549 breast; OVCAR-8 ovarian; RXF 393 renal; HCT-15 colon; NCI/ADR-RES ovarian; HCT-116 colon; SN12C renal; 786-0 renal; K-562 leukemia; SF-268 CNS; SNB-19 CNS; RPMI-8226 leukemia; UO-31 renal; MALME-3M melanoma; IGROV1 ovarian; SNB-75 CNS; UACC-62 melanoma; HT29 colon; TK-10 renal; SW-620 colon; HL-60(TB) leukemia; OVCAR-3 ovarian; LOX IMVI melanoma; U251 CNS; MCF7 breast; NCI-H460 lung; ACHN renal; M14 melanoma; A549 NSCLC; PC-3 prostate; SK-MEL-2 melanoma.

What all share (assay): growth of human tumour cells (NCI), 48 h

For `O=C1N[C@@H](Cc2ccccc2)C(=O)N2CCC[C@@H]2C(=O)N[C@@H](CCCCCC(=O)[C@@H]2CO2)C(=O)N[C@H]1Cc1ccccc1` (cyclo(FF[dP][Aoe])), the GI50 was 0.000732 µM and 0.00214 µM in the assay with UACC-257 melanoma; 0.00426 µM and 0.00689 µM in the assay on NCI-H23 lung. For the same compound, the TGI in the assay with NCI-H23 lung was 2.12 µM and 0.458 µM; in the assay on NCI-H226 lung, greater than 2.13 µM; with HOP-92 NSCLC, 1.6 µM.

As for `CCCC(=O)NC1CCc2cc(OC)c(OC)c(OC)c2-c2ccc(OC)c(=O)cc21` (configuration not stated), the TGI was greater than 100 µM in the assay on SK-MEL-28 melanoma; 0.00199 µM in the assay on SF-539 CNS; 0.0114 µM in the assay on DU-145 prostate; greater than 100 µM in the assay on CCRF-CEM leukemia; greater than 100 µM with HOP-62 NSCLC; greater than 100 µM in the assay with EKVX NSCLC. The TGI in the assay on BT-549 breast was greater than 100 µM; with OVCAR-8 ovarian it was greater than 100 µM; with RXF 393 renal, 44.7 µM; with HCT-15 colon, 25.5 µM; with NCI/ADR-RES ovarian it was greater than 100 µM; in the assay with HCT-116 colon, greater than 100 µM. Moreover, the TGI with SN12C renal, with 786-0 renal, in the assay with K-562 leukemia, in the assay with SF-268 CNS, in the assay with SNB-19 CNS and in the assay with RPMI-8226 leukemia was greater than 100 µM each time. The TGI is 75.9 µM with UO-31 renal; greater than 100 µM in the assay on MALME-3M melanoma; greater than 100 µM in the assay with IGROV1 ovarian; greater than 100 µM in the assay on SNB-75 CNS; greater than 100 µM with UACC-62 melanoma; 0.125 µM in the assay on HT29 colon. Besides, the TGI in the assay on TK-10 renal is greater than 100 µM; with SW-620 colon, greater than 100 µM; in the assay on HL-60(TB) leukemia it was 0.158 µM; with OVCAR-3 ovarian, 0.211 µM; in the assay with LOX IMVI melanoma it was greater than 100 µM; in the assay on U251 CNS, greater than 100 µM. Further, the TGI in the assay on MCF7 breast, in the assay with NCI-H460 lung, with ACHN renal, in the assay with M14 melanoma, in the assay on A549 NSCLC and in the assay on PC-3 prostate was greater than 100 µM in each case. The compound further came in with a TGI in the assay with SK-MEL-2 melanoma greater than 100 µM. Also, the GI50 with EKVX NSCLC is greater than 100 µM; with HCT-15 colon, 0.011 µM; in the assay on NCI/ADR-RES ovarian it was 3.2 µM; in the assay with UO-31 renal, 0.138 µM; with M14 melanoma, greater than 100 µM.
